Values joined by “and” are separate entries in the source; they are usually repeats but may differ in a detail not shown here. Equal entries are not always repeated. Where two headings read alike, the source gives them in different places.
What was measured:
P2 transporter (TbAT1) [1] = molecular target: T1, P2 transporter (TbAT1) (Trypanosoma brucei brucei, UniProt Q9Y0I0); assay: cell-based
Description: Non-specific association of radiolabel with the cell pellet was determined using an identical incubation in the presence of saturating (1 mM) unlabelled adenosine.

P2 transporter (TbAT1) [2] = molecular target: T1, P2 transporter (TbAT1); design: method as in PMID 24283924; details: ref [18]; cited from earlier work
[3] = system: Lister 427WT T. b. brucei; assay: Adenosine deaminase susceptibility (drug sensitivity with/without 2 µM deoxycoformycin); type: cell-based, Trypanosoma brucei brucei; details: Trypanosoma brucei, Lister 427WT, mean ± SEM, n=3
Description: Drug susceptibility tests with Lister 427WT, TbAT1-KO[48], B48[26] and ISMR1[27] were performed using an assay based on the viability indicator dye resazurin in 96-well plates, each well containing 2 × 10^4 cells. The plates were incubated for 48 h with a doubling dilution series of the test compounds in HMI-9/fetal bovine serum at 37 °C/5% CO2 (23 dilutions starting at 100 µM, except for the pentamidine control (50 µM)), after which resazurin (20 µL of 125 µg mL^−1 resazurin sodium salt solution was added to each well (containing 200 µL of cells and test compound)) was added to each well and the plates incubated for another 24 h. Fluorescence was determined using a FLUOstar Optima (BMG Labtech, Durham, NC) and the results fitted to a sigmoid curve with variable slope using Prism 5.0 or Prism 7.04 (GraphPad, San Diego, CA). […]
Adenosine deaminase susceptibility
in the presence or absence of 2 µM 2’-deoxycoformycin. […]

P1 transporter = molecular target: P1 transporter; design: method as in PMID 10570043; details: ref [29]; cited from earlier work
[4] = system: T. brucei BSF s427 wildtype cells; assay: Growth assays of T. brucei (trypanocidal/trypanostatic effect); type: cell-based, Trypanosoma brucei; details: experiment 1
Description: Growth assays of T. brucei
To test the effect of the novel adenosine analogues on the growth of T. brucei BSF, s427 wildtype cells were seeded at 1×10^5 cells mL-1 in 5 mL of HMI-9 medium with 10% FBS and treated with compounds […]
cells were also incubated in drug-free medium under the same conditions. 2 μM of 2’-deoxycoformycin were added to all cultures to avoid any potential effect of serum adenosine deaminase on the activity of test compounds and cordycepin.1
Cells were manually counted in Neubauer chambers at 0, 2, 4, 6, 8, 12, 24, 36 and 48 h after addition of […]
the drugs. […]
After 6 and 12 h after addition of drugs, approximately 2×10^6 cells were harvested from each group and applied to glass slides pre-treated with poly-L-lysine, left to settle for 5 min and fixed with 4% formaldehyde for 4 min. The formaldehyde was neutralised by addition of 100 mM glycine (20 min).
Cells were washed once with PBS and blocked for 1 h with 1% BSA/0.2% Tween-20 in PBS. Cells were […]

T1 sequence (Q9Y0I0 entry or part of it): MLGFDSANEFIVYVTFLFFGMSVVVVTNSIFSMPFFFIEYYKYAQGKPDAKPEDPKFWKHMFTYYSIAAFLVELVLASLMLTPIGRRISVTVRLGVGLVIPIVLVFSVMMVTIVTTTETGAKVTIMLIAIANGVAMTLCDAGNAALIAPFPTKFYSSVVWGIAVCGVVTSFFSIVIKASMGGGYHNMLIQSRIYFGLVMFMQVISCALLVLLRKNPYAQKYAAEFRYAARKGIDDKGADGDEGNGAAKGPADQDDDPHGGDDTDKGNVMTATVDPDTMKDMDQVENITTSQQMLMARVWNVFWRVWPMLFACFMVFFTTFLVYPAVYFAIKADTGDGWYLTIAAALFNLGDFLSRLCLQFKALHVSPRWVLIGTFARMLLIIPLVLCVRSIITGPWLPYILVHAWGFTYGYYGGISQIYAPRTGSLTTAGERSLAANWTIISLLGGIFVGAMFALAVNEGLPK

For `Nc1ncnc2c1ncn2[C@@H]1O[C@H](CO)C[C@H]1O` [Compound 3, cordycepin, reference compound], the “P2 Ki, fold lower than the Km value for adenosine” value (P2 transporter (TbAT1) [1]) was “roughly 3 fold”, the “energy advantage at P2 versus adenosine” value (P2 transporter (TbAT1) [1]) was “roughly 3 kJ mol^−1” and the “P2 transporter ΔG^0” value (P2 transporter (TbAT1) [1]; Gibbs free energy from −RT ln(Ki)) was -38.5 kJ/mol. For the same molecule, the “P2 transporter δ(ΔG^0)” value (P2 transporter (TbAT1) [1]; in comparison to adenosine) was -2.7 kJ/mol, the Ki (P2 transporter (TbAT1) [2]) was 180 ± 20 nM and the EC50 ([3]; absence of deoxycoformycin, read-out: T. b. brucei EC50, -Dcf) was 440 ± 110 nM. The EC50 ([3]; presence of 2 µM deoxycoformycin, read-out: T. b. brucei EC50, +Dcf) was 3.6 ± 1 nM, the Ki (P1 transporter) was 210 ± 48 µM and the “AVG of cells/mL” value ([4]; 2xEC50, 2 h) was 122500 cells/mL. For the same molecule, the Cells/mL ([4]; 2xEC50, 2 h) was 130000 Cells/mL and 115000 Cells/mL, the Counts ([4]; 2xEC50, 2 h) was 52 and 46 and the “AVG of cells/mL” value ([4]; 2xEC50, 4 h) was 122500 cells/mL. For the same molecule, the Cells/mL ([4]; 2xEC50, 4 h) was 110000 Cells/mL and 135000 Cells/mL, the Counts ([4]; 2xEC50, 4 h) was 44 and 54 and the “AVG of cells/mL” value ([4]; 2xEC50, 6 h) was 161250 cells/mL. For the same molecule, the Cells/mL ([4]; 2xEC50, 6 h) was 150000 Cells/mL and 172500 Cells/mL, the Counts ([4]; 2xEC50, 6 h) was 60 and 69 and the “AVG of cells/mL” value ([4]; 2xEC50, 8 h) was 187500 cells/mL. For the same molecule, the Cells/mL ([4]; 2xEC50, 8 h) was 207500 Cells/mL and 167500 Cells/mL, the Counts ([4]; 2xEC50, 8 h) was 83 and 67 and the “AVG of cells/mL” value ([4]; 2xEC50, 12 h) was 195000 cells/mL. For the same molecule, the Counts ([4]; 2xEC50, 12 h) was 75 and 81, the “AVG of cells/mL” value ([4]; 2xEC50, 24 h) was 106250 cells/mL and the Cells/mL ([4]; 2xEC50, 24 h) was 82500 Cells/mL and 130000 Cells/mL. For the same molecule, the Counts ([4]; 2xEC50, 24 h) was 33 and 52, the “AVG of cells/mL” value ([4]; 2xEC50, 36 h) was 81250 cells/mL and the Counts ([4]; 2xEC50, 36 h) was 29 and 36. The “AVG of cells/mL” value ([4]; 2xEC50, 48 h) was 105000 cells/mL, the Cells/mL ([4]; 2xEC50, 48 h) was 105000 Cells/mL and the Counts ([4]; 2xEC50, 48 h) was 42. For the same molecule, the “AVG of cells/mL” value ([4]; 5xEC50, 2 h) was 145000 cells/mL, the Cells/mL ([4]; 5xEC50, 2 h) was 177500 Cells/mL and 112500 Cells/mL and the Counts ([4]; 5xEC50, 2 h) was 71 and 45. For the same molecule, the “AVG of cells/mL” value ([4]; 5xEC50, 4 h) was 118750 cells/mL, the Cells/mL ([4]; 5xEC50, 4 h) was 107500 Cells/mL and 130000 Cells/mL and the Counts ([4]; 5xEC50, 4 h) was 43 and 52. The “AVG of cells/mL” value ([4]; 5xEC50, 6 h) was 130000 cells/mL, the Cells/mL ([4]; 5xEC50, 6 h) was 130000 Cells/mL and the Counts ([4]; 5xEC50, 6 h) was 52. The “AVG of cells/mL” value ([4]; 5xEC50, 8 h) was 172500 cells/mL, the Cells/mL ([4]; 5xEC50, 8 h) was 177500 Cells/mL and 167500 Cells/mL and the Counts ([4]; 5xEC50, 8 h) was 71 and 67. The “AVG of cells/mL” value ([4]; 5xEC50, 12 h) was 156250 cells/mL, the Counts ([4]; 5xEC50, 12 h) was 60 and 65 and the “AVG of cells/mL” value ([4]; 5xEC50, 24 h) was 33750 cells/mL. For the same molecule, the Cells/mL ([4]; 5xEC50, 24 h) was 35000 Cells/mL and 32500 Cells/mL, the Counts ([4]; 5xEC50, 24 h) was 14 and 13 and the “AVG of cells/mL” value ([4]; 5xEC50, 36 h) was 31250 cells/mL. For the same molecule, the Cells/mL ([4]; 5xEC50, 36 h) was 32500 Cells/mL and 30000 Cells/mL, the Counts ([4]; 5xEC50, 36 h) was 13 and 12 and the “AVG of cells/mL” value ([4]; 5xEC50, 48 h) was 15000 cells/mL. For the same molecule, the Cells/mL ([4]; 5xEC50, 48 h) was 15000 Cells/mL and the Counts ([4]; 5xEC50, 48 h) was 6.
